Assay results taken from patent US20040052828A1, “Consumable product including consumable component and alpha-keto enamine derivatives” (priority 2000, published 2004).

Tests used:
Type in all cases: in vivo, human
trained panelists = assay: Cooling threshold in water, triangle test by trained panelists; details: determined in water
Description: Prior to sensory analysis, the purity of the synthetic taste compounds was checked by GC/MS. Determination of the cooling, as well as the aroma threshold, of the compounds was performed by trained panelists. Nasal odor thresholds (Guth, H.; Grosch, W. J. Am. Oil Chem. Soc. 1993, 70, 513-518), as well as cooling thresholds, were determined by triangle tests using tap water as the solvent. The samples were presented in order of increasing concentrations and the threshold values evaluated in three separate sessions were averaged. The values between individuals and separate sessions differed by not more than one dilution step.

[1] = Cooling threshold in milk chocolate; details: for Cooling effect [mg/100 g chocolate]: cooling threshold in milk chocolate
From the text: In an additional experiment, the cooling thresholds of 3-MPC, 5-MPC, MPF, 2(5H)-MPF and 2(5H)-DMPF have been determined in chocolate. […] The ratio for compounds of the invention is typically less than that of menthol, preferably less than 9, more preferably less than about 3. In other embodiments, the cooling threshold to odor threshold ratio is less than about 1 or less than about 0.1.

[2] = Tasting of cooling compounds in Vittel mineral water
Description: Solutions of 10%-menthol, 10% 5-MPC and 10% MPF, respectively, in ethanol were diluted with Vittel™ mineral water. The solutions were tasted and compared with pure Vittel™ water.

mouth cavity = assay: Evaluation of cooling substances in orange juice
Description: Several cooling substances were evaluated in orange juice.

mouth = assay: Taste testing of sugar confectionery (candies)
Description: Sugar (100 g) was heated together with water (15 g) in a beaker on a hot plate. After the mixture became a clear solution, the sugar syrup was heated further until it became viscous due to the evaporation of water. Then 5-MPC (20 mg) and MPF (100 mg), respectively, were added. The viscous liquid was then poured into molds (3 g each) and cooled down to room temperature. The candies, which had been formed in the molds, were demolded and used for taste testing.

[3] = test system: skin surface on the inside of the right forearm; assay: Topical testing of cooling intensity on the forearm; details: scale 0 (no effect) to 5 (very strong)
Description: Topical thresholds of cooling compounds 5-MPF, 2(5H)-DMPF, 2(5H)-MPF and MPF were determined as follows: An aliquot (0.5 mL) of a solution, […], was applied to a circular area (10 cm^2) of the skin surface on the inside of the right forearm, midway between the wrist and the elbow, and were rubbed for 1 min. In parallel, an aliquot (0.5 mL) of pure tap water was applied as the blank onto the skin of the left forearm. After 1 min, the skin was dried. A panel of 10 subjects (male and female) were asked to rank the cooling intensity on a scale from 0 (no effect) to 5 (very strong). The values evaluated in three different sessions at two days were averaged. The values between individuals and separate sessions differed not more than 2 scores.

Application in ice cream = details: 20 mg/kg in ice cream
Description: Full-fat cream (250 g), milk (250 ml) and sugar (100 g) were mixed and stirred until the sugar was dissolved. Then the mixture was poured into an ice cream machine (Il Gelataio Super, Simac Inc., Gessate, Italy) and frozen within 30 minutes while stirring. In the same way, ice cream was prepared with 5-MPC (20 mg/kg). […] The cool refreshing impression of this ice cream persisted much longer than with the unflavored reference compound.

CC1C=C(N2CCCC2)C(=O)C1C (stereo not drawn) [4,5-DMPC, 4,5-Dimethyl-2-(1-pyrrolidinyl)-2-cyclopenten-1-one]
Cooling threshold (trained panelists): 68 to 113 mg/kg

CC1=C(N2CCCC2)C(=O)CC1C (stereo not drawn) [3,4-DMPC, 3,4-Dimethyl-2-(1-pyrrolidinyl)-2-cyclopenten-1-one]
Cooling threshold (trained panelists): 51 to 86 mg/kg

CC1=C(N2CCCC2)C(=O)CO1 [MPF, 5-Methyl-4-(1-pyrrolidinyl)-3(2H)-furanone]
Cooling threshold (trained panelists): 1.5 to 3.0 mg/kg | Cooling effect [mg/100 g chocolate] [1]: 0.8-1.5 mg/100 g chocolate | Flavor: cooling effect ([2]; 400 mg/L in Vittel mineral water): Pronounced cooling effect | cooling effect (mouth cavity; 1000 mg/L in orange juice): pronounced cooling effect | cooling effect in the mouth (mouth; 100 mg added to syrup of 100 g sugar): pronounced cooling effect | Cooling intensity ([3]; 0.00020 % in tap water): 0 | Cooling intensity ([3]; 0.00039 % in tap water): 0 | Cooling intensity ([3]; 0.00078 % in tap water): 0 | Cooling intensity ([3]; 0.00156 % in tap water): 0 | Cooling intensity ([3]; 0.00313 % in tap water): 0 | Cooling intensity ([3]; 0.00625 % in tap water): 0 | Cooling intensity ([3]; 0.0125 % in tap water): 0 | Cooling intensity ([3]; 0.025 % in tap water): 0 | Cooling intensity ([3]; 0.05 % in tap water): 1 | Cooling intensity ([3]; 0.1 % in tap water): 2 | Cooling intensity ([3]; 0.2 % in tap water): 4 | Cooling intensity ([3]; 0.5 % in tap water): 5 | Cooling intensity ([3]; 1.0 % in tap water): 5

CC1=C(N2CCCC2)C(=O)CC1 [3-MPC, 3-Methyl-2-(1-pyrrolidinyl)-2-cyclopenten-1-one]
Cooling threshold (trained panelists): 29 to 44 mg/kg | Cooling effect [mg/100 g chocolate] [1]: 38-63 mg/100 g chocolate

CC1=C(N2CCCC2)C(=O)C(C)C1 (stereo not drawn) [3,5-DMPC, 3,5-Dimethyl-2-(1-pyrrolidinyl)-2-cyclopenten-1-one]
Cooling threshold (trained panelists): 33 to 54 mg/kg

CC1CCC(C(C)C)C(O)C1 (single isomer, unassigned; (-)) [(−)-Menthol, reference compound]
Cooling threshold (trained panelists): 0.9 to 1.9 mg/kg | Flavor: cooling effect ([2]; 10 mg/L in Vittel mineral water): Pronounced cooling effect, strong | cooling effect (mouth cavity; 20 mg/L in orange juice): strong cooling effect

CC1=C(N2CCCC2)C(=O)OC1 [2(5H)-MPF, 4-Methyl-3-(1-pyrrolidinyl)-2(5H)-furanone]
Cooling threshold (trained panelists): 0.02 to 0.06 mg/kg | Cooling effect [mg/100 g chocolate] [1]: 0.25-0.5 mg/100 g chocolate | Cooling intensity ([3]; 0.00020 % in tap water): 0 | Cooling intensity ([3]; 0.00039 % in tap water): 1 | Cooling intensity ([3]; 0.00078 % in tap water): 2 | Cooling intensity ([3]; 0.00156 % in tap water): 3 | Cooling intensity ([3]; 0.00313 % in tap water): 5 | Cooling intensity ([3]; 0.00625 % in tap water): 5

CC1=C(N2CCCC2)C(=O)CCC1 [3-MPCH, 3-Methyl-2-(1-pyrrolidinyl)-2-cyclohexen-1-one]
Cooling threshold (trained panelists): 90 to 150 mg/kg

CCN(CC)C1=CCC(C)C1=O (stereo not drawn) [5-MdeaC, 5-Methyl-2-diethylamino-2-cyclopenten-1-one]
Cooling threshold (trained panelists): 12 to 20 mg/kg

CC1=C(N2CCCC2)C(=O)C(C)O1 (stereo not drawn) [DMPF, 2,5-Dimethyl-4-(1-pyrrolidinyl)-3(2H)-furanone]
Cooling threshold (trained panelists): 100 to 140 mg/kg

CC1CC=C(N2CCCC2)C1=O (stereo not drawn) [5-MPC, 5-Methyl-2-(1-pyrrolidinyl)-2-cyclopenten-1-one]
Cooling threshold (trained panelists): 4.5 to 9 mg/kg | Cooling effect [mg/100 g chocolate] [1]: 2.3-3.7 mg/100 g chocolate | fold higher cooling threshold than 2(5H)-MPF ([1]; in chocolate, compared with 2(5H)-MPF): 8 fold | cooling effect (mouth cavity; 200 mg/L in orange juice): strong cooling effect | cooling effect in the mouth (mouth; 20 mg added to syrup of 100 g sugar): pronounced cooling effect | cooling effect (Application in ice cream): pronounced long lasting cooling effect | Cooling intensity ([3]; 0.00020 % in tap water): 0 | Cooling intensity ([3]; 0.00039 % in tap water): 0 | Cooling intensity ([3]; 0.00078 % in tap water): 0 | Cooling intensity ([3]; 0.00156 % in tap water): 0 | Cooling intensity ([3]; 0.00313 % in tap water): 0 | Cooling intensity ([3]; 0.00625 % in tap water): 0 | Cooling intensity ([3]; 0.0125 % in tap water): 0 | Cooling intensity ([3]; 0.025 % in tap water): 0 | Cooling intensity ([3]; 0.05 % in tap water): 0 | Cooling intensity ([3]; 0.1 % in tap water): 0 | Cooling intensity ([3]; 0.2 % in tap water): 1 | Cooling intensity ([3]; 0.5 % in tap water): 3 | Cooling intensity ([3]; 1.0 % in tap water): 5

CC1=C(N2CCCC2)C(=O)OC1C (stereo not drawn) [2(5H)-DMPF, 4,5-Dimethyl-3-(1-pyrrolidinyl)-2(5H)-furanone]
Cooling threshold (trained panelists): 2.0 to 4.0 mg/kg | Cooling effect [mg/100 g chocolate] [1]: 5.0-7.5 mg/100 g chocolate | Cooling intensity ([3]; 0.00625 % in tap water): 0 | Cooling intensity ([3]; 0.0125 % in tap water): 1 | Cooling intensity ([3]; 0.025 % in tap water): 3 | Cooling intensity ([3]; 0.05 % in tap water): 5 | Cooling intensity ([3]; 0.1 % in tap water): 5 | Cooling intensity ([3]; 0.2 % in tap water): 5 | Cooling intensity ([3]; 0.5 % in tap water): 5 | Cooling intensity ([3]; 1.0 % in tap water): 5

CCC1CC=C(N2CCCC2)C1=O (stereo not drawn) [5-EPC, 5-Ethyl-2-(1-pyrrolidinyl)-2-cyclopenten-1-one]
Cooling threshold (trained panelists): 27 to 43 mg/kg

CC1=C(N2CCCCC2)C(=O)CC1 [3-MPipC, 3-Methyl-2-(1-piperidinyl)-2-cyclopenten-1-one]
Cooling threshold (trained panelists): 60 to 100 mg/kg

CC1=C(N2CCCC2C(=O)O)C(=O)CC1 (stereo not drawn) [3-MProC, 3-Methyl-2-(2-carboxy-1-pyrrolidinyl)-2-cyclopentene-1-one]
Cooling threshold (trained panelists): 490 to 735 mg/kg

COC(=O)C1CCCN1C1=CCC(C)C1=O (stereo not drawn) [5-MMeproC, 5-Methyl-2-(2-methoxycarbonyl-1-pyrrolidinyl)-2-cyclopentene-1-one]
Cooling threshold (trained panelists): 112 to 188 mg/kg

CC1CC=C(N2CCCCC2)C1=O (stereo not drawn) [5-MpipC, 5-Methyl-2-(1-piperidinyl)-2-cyclopenten-1-one]
Cooling threshold (trained panelists): 16 to 24 mg/kg

CC1CCC=C(N2CCCC2)C1=O (stereo not drawn) [6-MPCH, 6-Methyl-2-(1-pyrrolidinyl)-2-cyclohexen-1-one]
Cooling threshold (trained panelists): 27 to 45 mg/kg
